From the supplement of paper PMC10307832

Experiments:
Test in all cases: relative viability (nuclei count vs DMSO), 5 days (fraction); higher = more cells survive
[1] = compound: CNC(=O)c1ccccc1Sc1ccc2c(/C=C/c3ccccn3)n[nH]c2c1 [Axitinib] + C[C@@H](Oc1cc(-c2cnn(C3CCNCC3)c2)cnc1N)c1c(Cl)ccc(F)c1Cl [Crizotinib] (partner 1 µM)
Procedure, shortened: (§1)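 Lung cancer cell lines, seeded in 1536-well plates, were treated the following day by pin tool with a single drug or with five library-drug doses (not always all listed) in √10 steps on top of a fixed anchor-drug dose. Cells were fixed and nuclei stained in one step after 5 days, and nuclei were counted. Relative viability is the nuclei count for treated wells divided by that for vehicle wells, reported as medians of duplicate plates.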

[2] = compound: CC1=CC=C(C=C1)C(=O)CN2C3=C(CCCC3)SC2=N [Pifithrin_alpha] + CC(=O)c1c(C)c2cnc(Nc3ccc(N4CCNCC4)cn3)nc2n(C2CCCC2)c1=O [Palbociclib] (partner 0.5 µM)
Procedure, shortened: as §1

[3] = compound: Nc1nc(Nc2ccc3c(c2)CC[C@@H](N2CCCC2)CC3)nn1-c1cc2c(nn1)-c1ccccc1CCC2 [Bemcentinib] + CC(C)C[C@H](NC(=O)[C@H](Cc1ccccc1)NC(=O)c1cnccn1)B(O)O [Bortezomib] (partner 0.002 µM)
Procedure, shortened: as §1

[4] = compound: CC1=CC=C(C=C1)C(=O)CN2C3=C(CCCC3)SC2=N [Pifithrin_alpha] + N=C(N)NC(=N)NCCc1ccccc1 [Phenformin] (partner 250 µM)
Procedure, shortened: as §1

| Cell Line | relative viability ([1]; first compound 0.005 µM) | relative viability ([1]; first compound 0.01581 µM) | relative viability ([1]; first compound 0.05 µM) | relative viability ([1]; first compound 0.1581 µM) | relative viability ([1]; first compound 0.5 µM) | relative viability ([2]; first compound 1 µM) | relative viability ([2]; first compound 3.162 µM) | relative viability ([2]; first compound 10 µM) | relative viability ([2]; first compound 31.62 µM) | relative viability ([2]; first compound 100 µM) | relative viability ([3]; first compound 0.04 µM) | relative viability ([3]; first compound 0.1265 µM) | relative viability ([3]; first compound 0.4 µM) | relative viability ([3]; first compound 1.265 µM) | relative viability ([3]; first compound 4 µM) | relative viability ([4]; first compound 1 µM) | relative viability ([4]; first compound 3.162 µM) | relative viability ([4]; first compound 10 µM) | relative viability ([4]; first compound 31.62 µM) | relative viability ([4]; first compound 100 µM) |
| --- | --- | --- | --- | --- | --- | --- | --- | --- | --- | --- | --- | --- | --- | --- | --- | --- | --- | --- | --- | --- |
| NCI-H1975 | 1.13 | 1.05 | 1.15 | 0.931 | 1.08 | 0.573 | 0.435 | 0.32 | 0.302 | 0.339 | 0.381 | 0.347 | 0.417 | 0.433 | 0.44 | 0.394 | 0.38 | 0.373 | 0.337 | 0.364 |
| NCI-H1651 | 0.904 | 0.858 | 0.707 | 0.842 | 0.861 | 0.534 | 0.513 | 0.513 | 0.569 | 0.514 | 0.955 | 1.05 | 1.03 | 0.745 | 0.878 | 0.345 | 0.351 | 0.387 | 0.26 | 0.317 |
| NCI-H661 | 0.976 | 1.03 | 0.995 | 1.02 | 1.08 | 0.397 | 0.4 | 0.36 | 0.386 | 0.334 | 0.782 | 0.92 | 0.887 | 0.772 | 0.899 | 0.24 | 0.29 | 0.292 | 0.308 | 0.282 |
| NCI-H23 | 0.532 | 0.529 | 0.619 | 0.436 | 0.656 | 0.537 | 0.413 | 0.445 | 0.351 | 0.413 | 1.16 | 1.14 | 1.01 | 1.17 | 1.14 | 0.853 | 0.734 | 0.764 |  | 0.753 |
| PC-14 | 0.954 | 0.959 | 0.849 | 0.937 | 0.984 | 0.651 | 0.513 | 0.515 | 0.191 | 0.134 | 0.86 | 0.849 | 0.934 | 0.911 | 1 | 0.536 | 0.567 | 0.525 | 0.406 | 0.413 |
| H3255 | 0.975 | 0.79 | 0.764 | 0.77 | 1 | 0.292 | 0.304 | 0.298 | 0.296 | 0.304 | 0.648 | 0.863 | 0.767 | 0.803 | 0.715 | 0.364 | 0.97 | 0.384 | 0.389 | 0.342 |
| NCI-H3122 | 0.205 | 0.276 | 0.274 | 0.314 | 0.267 | 0.175 | 0.211 | 0.193 | 0.146 | 0.195 | 0.911 | 1.04 | 0.991 | 0.937 | 0.994 | 0.376 | 0.356 | 0.327 |  | 0.283 |
| NCI-H2009 | 1.17 | 1.14 | 1.01 | 1.08 | 1.16 | 0.194 | 0.219 | 0.172 | 0.128 | 0.174 | 0.986 | 1.05 | 1.09 | 1.09 | 1.19 | 0.483 | 0.467 | 0.451 | 0.345 | 0.422 |
| HCC-827 | 0.882 | 0.905 | 0.914 | 0.886 | 0.943 | 0.49 | 0.444 | 0.479 | 0.43 | 0.471 | 0.979 | 1.05 | 1.16 | 0.762 | 1.06 | 0.438 | 0.432 | 0.414 | 0.409 | 0.395 |
| LXF-289 | 0.872 | 0.799 | 0.781 | 0.781 | 0.841 | 0.591 | 0.625 | 0.591 | 0.529 | 0.6 | 1.02 | 1.06 | 1.03 | 1.06 | 1.07 | 0.509 | 0.562 | 0.526 | 0.471 | 0.556 |
| NCI-H727 | 0.823 | 0.693 | 0.872 | 0.793 | 0.985 | 0.615 | 0.678 | 0.657 | 0.636 | 0.667 | 0.691 | 1.12 | 0.918 | 0.746 | 1.1 | 0.604 | 0.572 | 0.538 |  | 0.501 |
| NCI-H1993 | 1.01 | 0.983 | 0.873 | 0.96 | 0.858 | 0.585 | 0.542 | 0.506 | 0.54 | 0.46 | 1.12 | 1.17 | 1.14 | 0.921 | 1.2 | 0.474 | 0.461 | 0.49 | 0.547 | 0.511 |
| NCI-H1437 | 1.07 | 0.927 | 0.863 | 0.934 | 0.93 | 0.325 | 0.326 | 0.218 | 0.217 | 0.172 | 0.54 | 0.546 | 0.503 | 0.405 | 0.489 | 0.296 | 0.258 | 0.294 | 0.264 | 0.259 |
| NCI-H1792 | 1.02 | 0.988 | 0.987 | 0.962 | 0.955 |  | 0.589 | 0.637 | 0.535 | 0.669 | 1.02 | 1.17 | 1.19 | 1.04 | 1.03 | 0.292 |  | 0.472 |  | 0.372 |
